Results taken from ChEMBL document CHEMBL1144172, “Discovery of novel series of benzoic acid derivatives containing biphenyl ether moiety as potent and selective human beta(3)-adrenergic receptor agonists: Part IV” (Bioorg Med Chem Lett, 2008).

Legend:
[1] = molecular target: Beta-3 adrenergic receptor (Homo sapiens, UniProt P13945); assay: Agonist activity at human cloned adrenergic beta3 receptor expressed in CHO cells assessed as cAMP accumulation; type: functional, cell-based
[2] = molecular target: Beta-1 adrenergic receptor (Homo sapiens, UniProt P08588)
Chain of Beta-1 adrenergic receptor (P08588 whole entry): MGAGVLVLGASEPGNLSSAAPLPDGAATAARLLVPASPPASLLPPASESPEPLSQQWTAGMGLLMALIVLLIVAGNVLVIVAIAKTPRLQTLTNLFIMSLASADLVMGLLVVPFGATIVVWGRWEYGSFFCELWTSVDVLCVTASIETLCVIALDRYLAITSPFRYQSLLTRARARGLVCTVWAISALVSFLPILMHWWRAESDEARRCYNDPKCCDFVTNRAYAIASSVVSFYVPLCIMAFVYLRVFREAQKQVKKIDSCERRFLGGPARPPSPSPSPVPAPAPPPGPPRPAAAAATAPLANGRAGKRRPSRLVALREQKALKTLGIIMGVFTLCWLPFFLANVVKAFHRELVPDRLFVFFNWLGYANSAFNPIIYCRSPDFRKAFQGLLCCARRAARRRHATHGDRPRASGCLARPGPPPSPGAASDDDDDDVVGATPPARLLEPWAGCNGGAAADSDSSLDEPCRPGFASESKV
Description: Agonist activity at human cloned adrenergic beta-1 receptor expressed in CHO cells assessed as cAMP accumulation

[3] = system: CHO; assay: Selectivity for human cloned adrenergic beta-1 receptor over human cloned adrenergic beta3 receptor expressed in CHO cells; type: cell-based
[4] = molecular target: Beta-3 adrenergic receptor (Canis lupus familiaris, UniProt O02662); assay: Agonist activity at dog cloned adrenergic beta3 receptor expressed in CHO cells assessed as cAMP accumulation; type: functional, cell-based
Chain of Beta-3 adrenergic receptor (Canis lupus familiaris, UniProt O02662) (O02662 whole entry): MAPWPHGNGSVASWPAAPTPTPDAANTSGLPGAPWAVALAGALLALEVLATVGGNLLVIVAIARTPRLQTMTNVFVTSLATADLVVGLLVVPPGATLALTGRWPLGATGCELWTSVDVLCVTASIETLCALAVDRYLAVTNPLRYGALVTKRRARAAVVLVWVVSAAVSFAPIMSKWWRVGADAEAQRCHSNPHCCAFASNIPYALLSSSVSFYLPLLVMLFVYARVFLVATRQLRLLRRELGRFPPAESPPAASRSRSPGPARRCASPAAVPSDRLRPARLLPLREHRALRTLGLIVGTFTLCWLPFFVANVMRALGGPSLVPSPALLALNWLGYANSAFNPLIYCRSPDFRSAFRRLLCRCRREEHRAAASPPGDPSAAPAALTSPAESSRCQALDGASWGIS

[5] = molecular target: Beta-3 adrenergic receptor (Canis lupus familiaris) (UniProt O02662); assay: Agonist activity at dog cloned adrenergic beta3 receptor assessed as inhibition of carbachol-induced increase in intravesical pressure at 32 ug/kg, iv; type: functional
Chain of Beta-3 adrenergic receptor (Canis lupus familiaris) (O02662 whole entry): as above

[6] = molecular target: Beta-3 adrenergic receptor (Canis lupus familiaris) (UniProt O02662); assay: Agonist activity at dog cloned adrenergic beta3 receptor assessed as inhibition of carbachol-induced increase in intravesical pressure at 10 ug/kg, iv; type: functional

Chain of Beta-3 adrenergic receptor (Homo sapiens, UniProt P13945) (P13945 whole entry): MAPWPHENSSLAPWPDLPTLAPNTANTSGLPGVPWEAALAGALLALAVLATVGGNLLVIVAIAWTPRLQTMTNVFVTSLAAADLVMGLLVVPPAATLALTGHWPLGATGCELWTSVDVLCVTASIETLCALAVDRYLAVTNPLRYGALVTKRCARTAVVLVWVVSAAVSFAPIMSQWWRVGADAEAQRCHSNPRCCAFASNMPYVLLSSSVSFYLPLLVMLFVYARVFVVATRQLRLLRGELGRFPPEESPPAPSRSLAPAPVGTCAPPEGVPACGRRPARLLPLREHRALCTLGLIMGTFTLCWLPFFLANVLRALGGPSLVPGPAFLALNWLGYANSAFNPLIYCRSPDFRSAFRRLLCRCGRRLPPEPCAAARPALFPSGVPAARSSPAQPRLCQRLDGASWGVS

Compound	EC50 [1] [nM]	EC50 [2] [nM]	Ratio EC50 [3]	EC50 [4] [nM]	inhibition [5] [%]	inhibition [6] [%]
Cc1ccc(Oc2cccc(CCNC[C@H](O)c3cccc(Cl)c3)c2)cc1C(=O)O	13	550	42	–	–	–
CC(=O)Nc1ccc(Oc2cccc(CCNC[C@H](O)c3cccnc3)c2)cc1C(=O)O	12	190	16	–	–	–
CC(=O)Nc1ccc(Oc2cccc(CCNC[C@H](O)c3cccc(Cl)c3)c2)cc1C(=O)O	7.2	380	53	–	–	–
C[C@H](Cc1cccc(Oc2cccc(C(=O)O)c2)c1)NC[C@H](O)c1cccc(Cl)c1	1.9	28	15	–	–	–
CC(=O)Nc1cc(Oc2cccc(CCNC[C@H](O)c3cccc(Cl)c3)c2)cc(C(=O)O)c1	6.5	240	37	–	–	–
O=C(O)c1cc(Oc2cccc(CCNC[C@H](O)c3cccc(Cl)c3)c2)ccc1N1CCCC1=O	6.6	> 1000	> 152	1.9	84	–
O=C(O)c1cc(Oc2cccc(CCNC[C@H](O)c3cccnc3)c2)ccc1F	31	840	27	–	–	–
O=C(O)c1cc(Oc2cccc(CCNC[C@H](O)c3cccc(Cl)c3)c2)ccc1F	9.4	140	15	–	–	–
CC(C)(C)C(=O)Nc1ccc(Oc2cccc(CCNC[C@H](O)c3cccc(Cl)c3)c2)cc1C(=O)O	4.6	620	135	1.6	30	–
O=C(O)c1ccc(Oc2cccc(CCNC[C@H](O)c3cccc(Cl)c3)c2)cc1	60	> 100	–	–	–	–
COc1ccc(Oc2cccc(CCNC[C@H](O)c3cccc(Cl)c3)c2)cc1C(=O)O	11	510	46	–	–	–
O=C(O)c1cccc(Oc2cccc(CCNC[C@H](O)c3cccc(Cl)c3)c2)c1	14	> 100	> 7.1	–	–	–
COc1ccc(Oc2cccc(CCNC[C@H](O)c3cccnc3)c2)cc1C(=O)O	56	690	12	–	–	–
CC(C)Oc1ccc(Oc2cccc(CCNC[C@H](O)c3cccc(Cl)c3)c2)cc1C(=O)O	3.4	810	238	3.2	–	43
O=C(O)c1cc(Oc2cccc(CCNC[C@H](O)c3cccc(Cl)c3)c2)ccc1Cl	9.5	64	6.7	–	–	–
O=C(Nc1ccc(Oc2cccc(CCNC[C@H](O)c3cccc(Cl)c3)c2)cc1C(=O)O)c1ccccc1	8.6	130	15	–	–	–
O=C(O)c1cc(NC(=O)c2ccccc2)cc(Oc2cccc(CCNC[C@H](O)c3cccc(Cl)c3)c2)c1	21	190	9	–	–	–
